The source of these data is patent US12247032B2, “Substituted pyrazolo[1,5-a]pyrimidines as inhibitors of JAK kinases” (Genentech, Inc., priority 2019, dated 2025).

The target of this assay is T1, Recombinant human JAK2 kinase domain protein (Residues 812-1132) (Homo sapiens, UniProt O60674).
T1 construct: human JAK2 kinase domain protein (Residues 812-1132); made in house; host or cells: insect cells
Put plainly: JAK2 biochemical assay (microfluidic mobility shift, peptide phosphorylation). The conditions noted are these: 25 μM ATP, 0.2 nM total JAK2; Ki calculated from Ki app (tight-binding, competitive); read-out: Biochem JAK2 Ki. A digest of the protocol:
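Insect-cell-expressed human JAK1 (1 nM, residues 854-1154) or JAK2 (0.2 nM, residues 812-1132) phosphorylating 1.5 μM 5-FAM peptide Y-1B with 25 μM ATP, pH 7.2 HEPES, 30 min at 22-23 °C; twelve concentrations up to 1000 nM in duplicate. Mobility-shift % conversion fitted to tight-binding quadratic for Ki^app.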

T1 sequence (O60674 812-1132): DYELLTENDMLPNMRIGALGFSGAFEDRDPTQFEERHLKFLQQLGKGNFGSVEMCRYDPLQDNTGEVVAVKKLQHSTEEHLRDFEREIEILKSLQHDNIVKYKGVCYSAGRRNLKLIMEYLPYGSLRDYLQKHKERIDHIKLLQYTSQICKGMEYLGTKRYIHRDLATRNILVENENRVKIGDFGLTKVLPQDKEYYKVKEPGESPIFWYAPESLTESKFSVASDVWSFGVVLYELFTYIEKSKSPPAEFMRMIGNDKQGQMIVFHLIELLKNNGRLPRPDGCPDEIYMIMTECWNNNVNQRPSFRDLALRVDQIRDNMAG

On to `O=C(Nc1cn(Cc2nnn(C3CCNC3)n2)nc1-c1cc(OC(F)F)ccc1OC(F)F)c1cnn2cccnc12` (single isomer, unassigned) [Example 27, N-[3-[2,5-bis(difluoromethoxy)phenyl]-1-[(2-pyrrolidin-3-yltetrazol-5-yl)methyl]pyrazol-4-yl]pyrazolo[1,5-a]pyrimidine-3-carboxamide], for which the Ki was 0.38 nM.
Turning to `O=C(Nc1cn(Cc2nnn(C3CCNC3)n2)nc1-c1cc(OC(F)F)ccc1OC(F)F)c1cnn2cccnc12` (single isomer, unassigned) [Example 28, N-[3-[2,5-bis(difluoromethoxy)phenyl]-1-[(2-pyrrolidin-3-yltetrazol-5-yl)methyl]pyrazol-4-yl]pyrazolo[1,5-a]pyrimidine-3-carboxamide], the Ki was 0.36 nM.
As to `CN1CCC(N2CC(n3nnc(Cn4cc(NC(=O)c5cnn6cccnc56)c(-c5cc(OC(F)F)ccc5OC(F)F)n4)n3)C2)C1` (single isomer, unassigned) [Example 72, N-[3-[2,5-bis(difluoromethoxy)phenyl]-1-[[2-[1-(1-methylpyrrolidin-3-yl)azetidin-3-yl]tetrazol-5-yl]methyl]pyrazol-4-yl]pyrazolo[1,5-a]pyrimidine-3-carboxamide], the Ki was 0.48 nM.
The same measure for `CN1CC(n2nnc(Cn3cc(NC(=O)c4cnn5cccnc45)c(-c4cc(Cl)ccc4OC(F)F)n3)n2)C1` [Example 7, N-[3-[5-chloro-2-(difluoromethoxy)phenyl]-1-[[2-(1-methylazetidin-3-yl)tetrazol-5-yl]methyl]pyrazol-4-yl]pyrazolo[1,5-a]pyrimidine-3-carboxamide]: 0.17 nM; for `O=C(Nc1cn(Cc2nnn(C3CNC3)n2)nc1-c1cc(Cl)ccc1OC(F)F)c1cnn2cccnc12` [Example 8, N-[1-[[2-(azetidin-3-yl)tetrazol-5-yl]methyl]-3-[5-chloro-2-(difluoromethoxy)phenyl]pyrazol-4-yl]pyrazolo[1,5-a]pyrimidine-3-carboxamide]: 0.28 nM; for `CN1CC(n2nnc(Cn3cc(NC(=O)c4cnn5cccnc45)c(-c4cc(OC(F)F)ccc4OC(F)F)n3)n2)C1` [Example 10, N-[3-[2,5-bis(difluoromethoxy)phenyl]-1-[[2-(1-methylazetidin-3-yl)tetrazol-5-yl]methyl]pyrazol-4-yl]pyrazolo[1,5-a]pyrimidine-3-carboxamide]: 0.24 nM.
Then `O=C(Nc1cn(Cc2nnn(C3CNC3)n2)nc1-c1cc(OC(F)F)ccc1OC(F)F)c1cnn2cccnc12` [Example 11, N-[1-[[2-(azetidin-3-yl)tetrazol-5-yl]methyl]-3-[2,5-bis(difluoromethoxy)phenyl]pyrazol-4-yl]pyrazolo[1,5-a]pyrimidine-3-carboxamide], with 0.27 nM.
For the compound `O=C(Nc1cn(Cc2nnnn2C2CNC2)nc1-c1cc(OC(F)F)ccc1OC(F)F)c1cnn2cccnc12` [Example 12, N-[1-[[1-(azetidin-3-yl)tetrazol-5-yl]methyl]-3-[2,5-bis(difluoromethoxy)phenyl]pyrazol-4-yl]pyrazolo[1,5-a]pyrimidine-3-carboxamide], the Ki is 0.18 nM.
The same measure for `NCCn1nnc(Cn2cc(NC(=O)c3cnn4cccnc34)c(-c3cc(OC(F)F)ccc3OC(F)F)n2)n1` [Example 13, N-[1-[[2-(2-aminoethyl)tetrazol-5-yl]methyl]-3-[2,5-bis(difluoromethoxy)phenyl]pyrazol-4-yl]pyrazolo[1,5-a]pyrimidine-3-carboxamide]: 0.16 nM; for `NCCn1nnnc1Cn1cc(NC(=O)c2cnn3cccnc23)c(-c2cc(OC(F)F)ccc2OC(F)F)n1` [Example 14, N-[1-[[1-(2-aminoethyl)tetrazol-5-yl]methyl]-3-[2,5-bis(difluoromethoxy)phenyl]pyrazol-4-yl]pyrazolo[1,5-a]pyrimidine-3-carboxamide]: 0.12 nM; for `CN1CC(n2nnnc2Cn2cc(NC(=O)c3cnn4cccnc34)c(-c3cc(Cl)ccc3OC(F)F)n2)C1` [Example 15, N-[3-[5-chloro-2-(difluoromethoxy)phenyl]-1-[[1-(1-methylazetidin-3-yl)tetrazol-5-yl]methyl]pyrazol-4-yl]pyrazolo[1,5-a]pyrimidine-3-carboxamide]: 0.092 nM.
With `CN(C)CCn1nnc(Cn2cc(NC(=O)c3cnn4cccnc34)c(-c3cc(OC(F)F)ccc3OC(F)F)n2)n1` [Example 16, N-[3-[2,5-bis(difluoromethoxy)phenyl]-1-[[2-[2-(dimethylamino)ethyl]tetrazol-5-yl]methyl]pyrazol-4-yl]pyrazolo[1,5-a]pyrimidine-3-carboxamide], the Ki was 0.27 nM.
On to `CN(C)CCn1nnnc1Cn1cc(NC(=O)c2cnn3cccnc23)c(-c2cc(OC(F)F)ccc2OC(F)F)n1` [Example 17, N-[3-[2,5-bis(difluoromethoxy)phenyl]-1-[[1-[2-(dimethylamino)ethyl]tetrazol-5-yl]methyl]pyrazol-4-yl]pyrazolo[1,5-a]pyrimidine-3-carboxamide], for which the Ki was 0.23 nM.
Then `O=C(Nc1cn(Cc2nnn(C3CCNCC3)n2)nc1-c1cc(OC(F)F)ccc1OC(F)F)c1cnn2cccnc12` [Example 18, N-[3-[2,5-bis(difluoromethoxy)phenyl]-1-[[2-(4-piperidyl)tetrazol-5-yl]methyl]pyrazol-4-yl]pyrazolo[1,5-a]pyrimidine-3-carboxamide], with 0.43 nM; and `CNCCn1nnnc1Cn1cc(NC(=O)c2cnn3cccnc23)c(-c2cc(OC(F)F)ccc2OC(F)F)n1` [Example 19, N-[3-[2,5-bis(difluoromethoxy)phenyl]-1-[[1-[2-(methylamino)ethyl]tetrazol-5-yl]methyl]pyrazol-4-yl]pyrazolo[1,5-a]pyrimidine-3-carboxamide], with 0.15 nM.
For the compound `CNCCn1nnc(Cn2cc(NC(=O)c3cnn4cccnc34)c(-c3cc(OC(F)F)ccc3OC(F)F)n2)n1` [Example 20, N-[3-[2,5-bis(difluoromethoxy)phenyl]-1-[[2-[2-(methylamino)ethyl]tetrazol-5-yl]methyl]pyrazol-4-yl]pyrazolo[1,5-a]pyrimidine-3-carboxamide], the Ki is 0.46 nM.
For the compound `CN(C)CCN1CC(n2nnc(Cn3cc(NC(=O)c4cnn5cccnc45)c(-c4cc(OC(F)F)ccc4OC(F)F)n3)n2)C1` [Example 21, N-[3-[2,5-bis(difluoromethoxy)phenyl]-1-[[2-[1-[2-(dimethylamino)ethyl]azetidin-3-yl]tetrazol-5-yl]methyl]pyrazol-4-yl]pyrazolo[1,5-a]pyrimidine-3-carboxamide], the Ki was 0.39 nM.
Take `CN1CCC(n2nnc(Cn3cc(NC(=O)c4cnn5cccnc45)c(-c4cc(OC(F)F)ccc4OC(F)F)n3)n2)CC1` [Example 22]: the Ki was 0.3 nM.
The same measure for `CN1CC(n2nnc(Cn3cc(NC(=O)c4cnn5cccnc45)c(-c4cc(C5CC5)ccc4OC(F)F)n3)n2)C1` [Example 23, N-[3-[5-cyclopropyl-2-(difluoromethoxy)phenyl]-1-[[2-(1-methylazetidin-3-yl)tetrazol-5-yl]methyl]pyrazol-4-yl]pyrazolo[1,5-a]pyrimidine-3-carboxamide]: 0.24 nM.
Regarding `CN1CCC(n2nnnc2Cn2cc(NC(=O)c3cnn4cccnc34)c(-c3cc(OC(F)F)ccc3OC(F)F)n2)C1` (stereo not shown) [Example 26, N-[3-[2,5-bis(difluoromethoxy)phenyl]-1-[[1-(1-methylpyrrolidin-3-yl)tetrazol-5-yl]methyl]pyrazol-4-yl]pyrazolo[1,5-a]pyrimidine-3-carboxamide], the Ki was 0.39 nM.
Regarding `CN(CCN1CC(n2nnc(Cn3cc(NC(=O)c4cnn5cccnc45)c(-c4cc(OC(F)F)ccc4OC(F)F)n3)n2)C1)C(=O)OC(C)(C)C` [Example 31, tert-butyl N-[2-[3-[5-[[3-[2,5-bis(difluoromethoxy)phenyl]-4-(pyrazolo[1,5-a]pyrimidine-3-carbonylamino)pyrazol-1-yl]methyl]tetrazol-2-yl]azetidin-1-yl]ethyl]-N-methyl-carbamate], the Ki was 0.25 nM.
Turning to `CN(C)CCN1CC(n2nnc(Cn3cc(NC(=O)c4cnn5cccnc45)c(-c4cc(Cl)ccc4OC(F)F)n3)n2)C1` [Example 37, N-[3-[5-chloro-2-(difluoromethoxy)phenyl]-1-[[2-[1-[2-(dimethylamino)ethyl]azetidin-3-yl]tetrazol-5-yl]methyl]pyrazol-4-yl]pyrazolo[1,5-a]pyrimidine-3-carboxamide], the Ki is 0.36 nM.
As for `CN1CCC(N2CC(n3nnc(Cn4cc(NC(=O)c5cnn6cccnc56)c(-c5cc(OC(F)F)ccc5OC(F)F)n4)n3)C2)CC1` [Example 38, N-[3-[2,5-bis(difluoromethoxy)phenyl]-1-[[2-[1-(1-methyl-4-piperidyl)azetidin-3-yl]tetrazol-5-yl]methyl]pyrazol-4-yl]pyrazolo[1,5-a]pyrimidine-3-carboxamide], the Ki was 0.44 nM.
Then `CSc1ccc(OC(F)F)c(-c2nn(Cc3nnn(C4CN(CCCN(C)C)C4)n3)cc2NC(=O)c2cnn3cccnc23)c1` [Example 58, N-[3-[2-(difluoromethoxy)-5-methylsulfanyl-phenyl]-1-[[2-[1-[3-(dimethylamino)propyl]azetidin-3-yl]tetrazol-5-yl]methyl]pyrazol-4-yl]pyrazolo[1,5-a]pyrimidine-3-carboxamide], with 0.38 nM.
Turning to `CN(C)CCN1CCC(n2nnc(Cn3cc(NC(=O)c4cnn5cccnc45)c(-c4cc(OC(F)F)ccc4OC(F)F)n3)n2)CC1` [Example 61, N-[3-[2,5-bis(difluoromethoxy)phenyl]-1-[[2-[1-[2-(dimethylamino)ethyl]-4-piperidyl]tetrazol-5-yl]methyl]pyrazol-4-yl]pyrazolo[1,5-a]pyrimidine-3-carboxamide], the Ki is 0.52 nM.
